Laboratory results published in paper PMC9891081 (Cell, 2022).
Each block holds one molecule with its values, some of them ahead of it.

How the values were obtained:
[1] = molecular target: rabbit Cav1.1 (rCav1.1) α1 subunit (Oryctolagus cuniculus, UniProt P07293); test: cryo-EM structure; assay type: binding
human Cav1.2 = human Cav1.2 (Homo sapiens, UniProt Q13936); test: calcium influx assay in HEK293 cells; assay type: cell-based
rabbit Cav1.1 α1 subunit = rabbit Cav1.1 α1 subunit (rabbit, UniProt P07293 1-1873); test: cryo-EM structure
rabbit Cav1.1 α1 subunit, sequence (P07293 whole entry): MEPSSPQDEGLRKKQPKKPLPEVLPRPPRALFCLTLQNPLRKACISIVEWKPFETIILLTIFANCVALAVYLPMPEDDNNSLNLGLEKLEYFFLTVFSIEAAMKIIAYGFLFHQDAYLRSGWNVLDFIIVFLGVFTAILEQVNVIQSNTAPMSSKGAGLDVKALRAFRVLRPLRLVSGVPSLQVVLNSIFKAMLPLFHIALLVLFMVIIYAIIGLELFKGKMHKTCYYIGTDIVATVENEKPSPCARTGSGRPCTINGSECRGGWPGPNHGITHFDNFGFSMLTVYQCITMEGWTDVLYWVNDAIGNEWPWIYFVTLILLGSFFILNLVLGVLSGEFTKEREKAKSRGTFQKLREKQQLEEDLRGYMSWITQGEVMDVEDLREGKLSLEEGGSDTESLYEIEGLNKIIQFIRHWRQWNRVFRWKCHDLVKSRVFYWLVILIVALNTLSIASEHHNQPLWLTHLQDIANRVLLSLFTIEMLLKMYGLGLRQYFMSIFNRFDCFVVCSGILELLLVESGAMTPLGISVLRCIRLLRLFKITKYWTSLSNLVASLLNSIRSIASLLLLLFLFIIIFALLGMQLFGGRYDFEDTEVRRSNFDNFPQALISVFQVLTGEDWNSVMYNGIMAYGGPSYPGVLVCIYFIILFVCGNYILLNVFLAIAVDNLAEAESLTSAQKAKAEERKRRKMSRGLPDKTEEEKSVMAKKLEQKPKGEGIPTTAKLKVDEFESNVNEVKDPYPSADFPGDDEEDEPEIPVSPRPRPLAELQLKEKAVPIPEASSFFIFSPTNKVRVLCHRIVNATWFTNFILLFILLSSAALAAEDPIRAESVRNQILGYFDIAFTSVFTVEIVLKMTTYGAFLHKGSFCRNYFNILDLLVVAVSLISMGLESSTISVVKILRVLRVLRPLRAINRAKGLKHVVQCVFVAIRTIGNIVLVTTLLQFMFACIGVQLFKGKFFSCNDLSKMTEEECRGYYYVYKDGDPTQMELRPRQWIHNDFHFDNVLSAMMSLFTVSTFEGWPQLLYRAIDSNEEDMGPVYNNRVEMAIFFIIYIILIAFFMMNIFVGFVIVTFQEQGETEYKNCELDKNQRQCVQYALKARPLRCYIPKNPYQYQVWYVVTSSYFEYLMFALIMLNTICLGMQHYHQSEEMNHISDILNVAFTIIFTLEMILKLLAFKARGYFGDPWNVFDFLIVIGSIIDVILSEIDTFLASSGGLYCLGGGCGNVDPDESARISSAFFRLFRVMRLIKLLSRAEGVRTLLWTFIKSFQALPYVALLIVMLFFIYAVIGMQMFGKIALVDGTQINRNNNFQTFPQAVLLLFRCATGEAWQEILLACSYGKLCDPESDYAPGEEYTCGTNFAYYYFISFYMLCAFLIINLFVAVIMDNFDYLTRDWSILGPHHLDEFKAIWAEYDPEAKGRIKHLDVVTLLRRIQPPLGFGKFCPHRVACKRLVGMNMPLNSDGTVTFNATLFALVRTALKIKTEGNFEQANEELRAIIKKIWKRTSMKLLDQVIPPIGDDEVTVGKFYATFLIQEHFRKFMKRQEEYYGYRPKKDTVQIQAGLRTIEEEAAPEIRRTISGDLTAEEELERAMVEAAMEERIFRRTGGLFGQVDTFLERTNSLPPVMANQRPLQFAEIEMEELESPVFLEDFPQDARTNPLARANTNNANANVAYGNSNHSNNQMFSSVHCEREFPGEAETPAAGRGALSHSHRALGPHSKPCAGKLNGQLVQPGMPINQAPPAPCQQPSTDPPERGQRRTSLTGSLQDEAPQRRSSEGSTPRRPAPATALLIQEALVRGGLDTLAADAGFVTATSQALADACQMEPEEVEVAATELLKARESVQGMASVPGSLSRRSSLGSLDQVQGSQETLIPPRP

rabbit Cav1.1 (rCav1.1) α1 subunit, sequence (P07293 whole entry, one chain of several): as the sequence (P07293 whole entry) above
rabbit Cav1.1 (rCav1.1) α1 subunit, sequence (P13806 27-960 partner, one chain of several): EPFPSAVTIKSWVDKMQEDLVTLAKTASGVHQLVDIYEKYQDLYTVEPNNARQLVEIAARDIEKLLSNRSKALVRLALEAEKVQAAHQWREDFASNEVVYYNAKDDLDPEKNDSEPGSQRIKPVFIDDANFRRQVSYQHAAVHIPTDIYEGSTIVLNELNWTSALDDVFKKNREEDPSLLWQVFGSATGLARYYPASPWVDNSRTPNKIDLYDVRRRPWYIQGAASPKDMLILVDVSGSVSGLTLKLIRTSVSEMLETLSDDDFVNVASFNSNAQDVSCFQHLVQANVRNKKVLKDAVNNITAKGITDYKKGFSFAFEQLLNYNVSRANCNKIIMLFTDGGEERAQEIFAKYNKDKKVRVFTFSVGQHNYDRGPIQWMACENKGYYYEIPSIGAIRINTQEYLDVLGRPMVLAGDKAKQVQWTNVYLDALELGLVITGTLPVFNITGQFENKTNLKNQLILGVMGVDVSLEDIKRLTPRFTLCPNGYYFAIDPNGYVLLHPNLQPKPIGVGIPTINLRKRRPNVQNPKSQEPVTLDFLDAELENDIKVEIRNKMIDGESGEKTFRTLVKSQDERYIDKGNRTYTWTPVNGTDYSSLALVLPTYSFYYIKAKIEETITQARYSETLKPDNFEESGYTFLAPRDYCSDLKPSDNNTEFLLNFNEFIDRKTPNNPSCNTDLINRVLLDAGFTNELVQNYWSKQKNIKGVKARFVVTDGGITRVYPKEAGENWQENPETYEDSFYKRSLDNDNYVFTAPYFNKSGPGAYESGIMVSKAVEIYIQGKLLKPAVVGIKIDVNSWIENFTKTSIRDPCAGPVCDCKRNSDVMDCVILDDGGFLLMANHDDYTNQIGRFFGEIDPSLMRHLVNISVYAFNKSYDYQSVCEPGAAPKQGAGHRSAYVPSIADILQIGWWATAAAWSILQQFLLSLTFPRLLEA
rabbit Cav1.1 (rCav1.1) α1 subunit, sequence (P13806 961-1106 partner, one chain of several): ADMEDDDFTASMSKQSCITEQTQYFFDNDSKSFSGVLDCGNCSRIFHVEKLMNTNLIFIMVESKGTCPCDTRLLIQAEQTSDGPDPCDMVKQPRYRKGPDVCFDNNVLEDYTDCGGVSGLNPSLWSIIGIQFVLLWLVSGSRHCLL

Molecule: CCCCc1oc2ccccc2c1C(=O)c1cc(I)c(OCCN(CC)CC)c(I)c1 [AMIO, amiodarone]
cryo-EM structure (2.8 Å) [1]: AMIO occupies the same site as for DHP compounds, i.e., the III-IV fenestration enclosed by S5III, S6III, and S6IV

Molecule: C#C[C@]1(C)[C@@H](O)[C@@H](COP(=O)(N[C@@H](C)C(=O)OC(C)C)Oc2ccccc2)O[C@H]1n1ccc(=O)[nH]c1=O (stereo partly drawn) [MNI-1]
IC50 (human Cav1.2): > 100 µM

binding result (rabbit Cav1.1 α1 subunit): binds
B1: rabbit γ1 subunit (natural protein, UniProt P19518 1-222, looked up)
chain: MSPTEAPKVRVTLFCILVGIVLAMTAVVSDHWAVLSPHMENHNTTCEAAHFGLWRICTKRIALGEDRSCGPITLPGEKNCSYFRHFNPGESSEIFEFTTQKEYSISAAAISVFSLGFLIMGTICALMAFRKKRDYLLRPASMFYVFAGLCLFVSLEVMRQSVKRMIDSEDTVWIEYYYSWSFACACAAFVLLFLGGISLLLFSLPRMPQNPWESCMDAEPEH
